Experimental data taken from patent US9737478B2, “Treatment of malaria” (National Institutes of Health (NIH), U.S. Dept. of Health …, priority 2009, dated 2017).

Columns and labels:
[1] = tested on: Plasmodium berghei ANKA (PbA); assay: Treatment of PbA-infected mice presenting clinical cerebral malaria (survival, motor score, parasitemia); format: in vivo, C57B1/6 mice; settings: for survival: mice with CM
Protocol: Eight to 10-week old C57B1/6 mice (Jackson Laboratories, ME) were inoculated intraperitoneally with 1×10^6 Plasmodium berghei ANKA (PbA) parasites expressing the GFP protein (obtained from MR4-NIH, deposited by C J Anders and A Waters). Parasitemia, body weight and rectal temperature were checked daily from day 4. […] Five tests were performed: transfer arousal, locomotor activity, tail elevation, wire maneuver and righting reflex. For each test, mice received an individual score, and the sum of scores was used to create a composite score.
PbA-infected mice presenting poor righting reflex, hypothermia and/or other clinical signs of neurological involvement such as ataxia, limb paralysis, seizures and/or roll-over were treated with artemether (Artesiane, Dafra Pharma, Belgium, a kind gift of Dr Alberto Moreno, Emory University, Atlanta, Ga.) given IP at 50 mg/kg, in combination with nimodipine (Sigma, St Louis, Mo.) or vehicle (ethanol:polyethyleneglycol (PEG) 400:saline in 1:1:8 v/v). Nimodipine was dissolved in ethanol (EMD, N.J.), dispersed with polyethyleneglycol 400 (PEG, Sigma) and then saline was added (1:1:8 v/v) and mixed thoroughly. This solution was administered intraperitoneally in three different doses: 1.3 mg/kg, 4 mg/kg and 12 mg/kg. […] Parasitemia, motor behavior and rectal temperature were checked at each timepoint and daily afterwards. After treatment, parasitemia was checked by microscopical examination of Giemsa-stained blood smears to differentiate viable from dead parasites.

[2] = tested on: PbA-infected mice with clinical CM; assay: Intravital microscopy of pial vessels (closed cranial window) in PbA-infected mice with clinical CM; format: in vivo; settings: nimodipine 4 mg/kg IP, 30 minutes after injection
Description: Briefly, mice were anesthetized with ketamine-xylazine, the head held on a stereotaxic frame, the scalp cut off and a 3-4 mm diameter skull opening was made in the left parietal bone using a surgical drill. The exposed area was covered with a 5 mm glass cover slip glued with dental acrylic. Carprofen and ampicillin were given for 3-5 days to prevent pain, inflammation and infection. Two weeks after surgery, mice were lightly anesthetized with isoflurane (4% for induction, 1-2% for maintenance) and held on a stereotaxic frame. A panoramic picture of the window was taken and then mice were transferred to an intravital microscope stage (customized McBain, San Diego, Calif.). Body temperature was maintained using a heating pad. […] Measurements of 6-10 pial venules (diameter range: 22-80 μm, velocity range: 2-4 mm/s) and 2-6 pial arterioles (diameter range: 18-70 μm, velocity range: 3-6 mm/s) were performed in each animal, and blood flow (Q) in each individual vessel was calculated using the equation: Q=V×(D/2)2.
The next day mice were inoculated intraperitoneally with 1×10^6 PbA-GFP pRBC. The intravital microscopy procedure was repeated daily from day 4 of infection until the mice died or were euthanized. Non-infected control mice were submitted to the same procedures. […]

SMILES | survival ([1]; artemether 50 mg/kg IP daily for 5 days plus vehicle) | deaths occurring in the first 36 hours ([1]; vehicle-treated group (artemether plus vehicle)) | increase in arteriolar blood flow [2] | survival ([1]; adjunctive nimodipine at 4 and 12 mg/kg IP at 0, 12, 24, 36 h with artemether 50 mg/kg IP daily for 5 days)
CO[C@H]1O[C@@H]2O[C@@]3(C)CC[C@H]4[C@H](C)CC[C@@H]([C@H]1C)[C@@]24OO3 [artemether] | 32.2% | 95.2% | – | –
COCCOC(=O)C1=C(C)NC(C)=C(C(=O)OC(C)C)C1c1cccc([N+](=O)[O-])c1 (stereo not shown) [nimodipine] | – | – | about 50% | 60-66.6%
